Results on 20 molecules are retold here after patent publication US20040006236A1, “Diaminopropionic acid derivatives” (priority 1999, published 2004).

Where a name gives a salt, the structure may show the parent alone. Read-outs that look alike come from different tables or passages of the source.

Test [1] deals with T1, LFA-1 binding to immobilized ICAM-1 (Homo sapiens, UniProt P05107+P20701).
T1 construct: made in house; host or cells: transfected 293 cells (LFA-1)
Put plainly: LFA-1/ICAM-1 protein-protein assay (solid-phase ELISA). The conditions noted are these: read-out: LFA-1/ICAM-1 Protein-Protein Assay IC50. As to the method:
(a) LFA-1/ICAM-1 screening test: LFA-1/ICAM-1 antagonist activity, defined as the ability of compounds of the invention to block LFA-1 binding to immobilized ICAM-1, was quantitated using a solid-phase ELISA.
(§1) Typically, fusion protein consisting of the entire extracellular domain of human ICAM-1 and the Fc domain of human IgG (5dICAM-Ig) was coated onto 96-well microtiter plates (0.15 μg in 100 μL PBS) overnight at 4° C. The plates were then blocked with 150 μL of 1% BSA/1 mM MnCl2/0.14 M NaCl/20 mM HEPES, pH 7.2 for 1 h at 37° C. and washed 3 times (150 μL each) with Wash Buffer (50 mM Tris, pH 7.4/100 mM NaCl/1 mM MnCl2/0.05% Tween 20). Stock solutions (100 μM in 100% DMSO) of test compounds were diluted 50 fold with 150 μL of Binding Buffer (0.05% BSA/0.05% Tween 20/1 mM MnCl2/0.14 M NaCl/20 mM HEPES, pH 7.2) plus 10% DMSO. […] Fifty μL per well of each dilution was added to the ICAM-1 coated plates, followed by 50 μL per well of membrane-bound LFA-1 (280 ng/mL in Binding Buffer) derived from transfected 293 cells. The plates were shaken vigorously for 1 min (room temperature) and gently for 2 h (37° C.). After incubation, the plates were washed 3 times (150 μL each) with Wash Buffer. Mouse anti-human integrin β2 monoclonal antibody was added (100 μL/well, 1 μg/mL in Binding Buffer) and allowed to incubate for 1 h (37° C.) with gentle agitation. The plates were then washed 3 times with Wash Buffer. HRP-conjugated goat anti-mouse IgG (100 μL/well, 1:1500 dilution in Binding Buffer) was added to each well, followed by incubation for 1 h (37° C.), and concluded by three washes (150 μL each) with Wash Buffer. TMB solution (100 μL per well) was added for color development (10 min). The reaction was stopped by the addition of 100 μL of 1 M H3PO4 to each well. The plates were then read at 450 nm. The inhibitory activities of test compounds were determined by the IC50s.
as §1, with “LFA-1/ICAM-1 antagonist activity, defined as the ability to block LFA-1 binding to immobilized ICAM-1, was quantitated using a solid-phase ELISA. Typically,” for “Typically,”, “(0.05 %” for “(0.05%”, “nm.” for “nm. The inhibitory activities of test compounds were determined by the IC50s.”
In general terms: ELISA stands for enzyme-linked immunosorbent assay.

For test [2], the system named is T lymphocyte proliferation (C57BI/6 spleen cells with irradiated BALB/c spleen cells). Put plainly: Mixed lymphocyte reaction (MLR), one-way. Format: cell-based, mice. The following applies: read-out: MLR IC50. An excerpt:
Admixture of murine spleen cells from two different inbred strains of mice induces proliferation of T lymphocytes. The magnitude of T cell proliferation depends on the extent of disparity in the major histocompatibility antigens between the two strains. Splenic T lymphocytes from both strains proliferate due to alloantigen recognition, a process for which the interaction of ICAM-1 on antigen-presenting cells with LFA-1 on lymphocytes is necessary. The ability of antagonists to inhibit T lymphocyte proliferation following recognition of alloantigens was assessed in a one-way MLR, where cells from one strain were irradiated to permit measurement of the proliferative response of cells from the other strain. Spleen cells were washed three times in tissue culture medium (TCM; see below). […] One hundred microliters of serial dilutions of antagonists or TCM were added to the spleen cell mixture. The total volume in each well was 200 μL. TCM was RPMI1640 containing 10% heat-inactivated fetal bovine serum, […] L-glutamine, 100 Units/ml each of penicillin and streptomycin and 5×10^−5 M 2-mercaptoethanol. Dilutions of antagonists were prepared in TCM. Plates were incubated in 5% CO2 for 3 days. On the third day, 0.5 μCi of tritiated thymidine (10 μCi/mL) was added to all the wells. Cells were harvested 6 h later on a 96-well plate harvester and the amount of tritiated thymidine incorporated was assessed in a liquid scintillation counter.

T1 sequence (P20701 26-1170): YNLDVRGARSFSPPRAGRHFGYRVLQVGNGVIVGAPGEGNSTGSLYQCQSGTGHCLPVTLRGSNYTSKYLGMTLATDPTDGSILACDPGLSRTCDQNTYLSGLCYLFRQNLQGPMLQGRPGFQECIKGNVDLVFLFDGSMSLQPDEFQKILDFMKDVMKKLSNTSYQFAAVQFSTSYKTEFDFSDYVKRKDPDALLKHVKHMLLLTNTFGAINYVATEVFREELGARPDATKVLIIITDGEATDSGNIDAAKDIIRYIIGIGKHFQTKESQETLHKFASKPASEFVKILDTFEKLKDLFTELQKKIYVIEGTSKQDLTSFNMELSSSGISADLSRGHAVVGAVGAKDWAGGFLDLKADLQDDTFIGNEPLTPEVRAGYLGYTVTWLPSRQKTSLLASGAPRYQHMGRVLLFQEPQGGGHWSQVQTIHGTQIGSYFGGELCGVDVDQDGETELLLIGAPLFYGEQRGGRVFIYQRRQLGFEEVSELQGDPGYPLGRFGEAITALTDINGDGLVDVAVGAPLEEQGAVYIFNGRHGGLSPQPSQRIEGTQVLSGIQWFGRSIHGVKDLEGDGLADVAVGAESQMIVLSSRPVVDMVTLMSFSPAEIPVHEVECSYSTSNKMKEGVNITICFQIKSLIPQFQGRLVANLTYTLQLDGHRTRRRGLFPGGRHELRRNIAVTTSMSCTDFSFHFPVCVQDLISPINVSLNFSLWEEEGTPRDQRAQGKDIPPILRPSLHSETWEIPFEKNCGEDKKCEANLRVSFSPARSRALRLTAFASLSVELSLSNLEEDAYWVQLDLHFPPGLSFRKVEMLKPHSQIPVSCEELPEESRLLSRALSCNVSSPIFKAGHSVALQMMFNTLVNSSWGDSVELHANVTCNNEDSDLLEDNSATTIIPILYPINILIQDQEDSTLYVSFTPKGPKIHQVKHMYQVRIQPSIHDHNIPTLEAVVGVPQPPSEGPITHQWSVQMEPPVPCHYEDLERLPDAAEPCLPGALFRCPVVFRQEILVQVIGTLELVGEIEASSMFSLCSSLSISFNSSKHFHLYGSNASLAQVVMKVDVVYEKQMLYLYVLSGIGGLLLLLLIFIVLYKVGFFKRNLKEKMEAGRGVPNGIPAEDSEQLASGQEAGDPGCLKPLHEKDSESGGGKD
T1 sequence (P05107 23-769): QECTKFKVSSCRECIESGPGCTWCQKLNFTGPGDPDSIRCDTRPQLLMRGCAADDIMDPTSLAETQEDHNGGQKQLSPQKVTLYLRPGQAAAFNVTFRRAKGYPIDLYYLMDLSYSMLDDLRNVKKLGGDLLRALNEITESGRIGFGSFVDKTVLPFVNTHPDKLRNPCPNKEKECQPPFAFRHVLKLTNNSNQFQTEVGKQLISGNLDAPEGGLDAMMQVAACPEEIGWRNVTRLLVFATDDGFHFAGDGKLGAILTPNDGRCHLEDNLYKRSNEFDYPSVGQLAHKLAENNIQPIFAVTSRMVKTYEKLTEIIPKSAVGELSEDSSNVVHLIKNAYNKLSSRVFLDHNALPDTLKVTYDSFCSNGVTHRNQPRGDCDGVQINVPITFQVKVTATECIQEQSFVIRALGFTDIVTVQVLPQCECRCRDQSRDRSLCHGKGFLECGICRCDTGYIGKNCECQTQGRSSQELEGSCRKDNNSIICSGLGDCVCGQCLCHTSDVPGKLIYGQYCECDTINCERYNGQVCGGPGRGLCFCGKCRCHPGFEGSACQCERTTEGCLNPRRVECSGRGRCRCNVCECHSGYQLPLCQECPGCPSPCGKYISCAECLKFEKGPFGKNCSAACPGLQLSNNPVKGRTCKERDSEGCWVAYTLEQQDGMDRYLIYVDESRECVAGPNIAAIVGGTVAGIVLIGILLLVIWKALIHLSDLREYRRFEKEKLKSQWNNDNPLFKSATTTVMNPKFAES

Regarding `O=C(NC[C@H](NC(=O)c1c(Cl)cccc1Cl)C(=O)O)c1ccc2[nH]ccc2c1` [Example 225], the IC50 in test [1] stood at 31 nM.

As to `O=C(N[C@@H](CNC(=O)C1CCC1)C(=O)O)c1c(Cl)cccc1Cl` [Example 212], the IC50 in test [1] worked out at 36 nM.

For the molecule `O=C(NCc1cccc(O)c1)c1ccc(C(=O)N[C@@H](CNC(=O)c2ccccc2)C(=O)O)c(Cl)c1` [Example 304, 3-benzoylamino-N-[2-chloro-4-[[[(3-hydroxyphenyl)methyl]amino]carbonyl]benzoyl]-L-alanine, sodium salt], the IC50 in test [1] was determined as 1.1 nM; in test [2] (sodium salt) it was 270 nM.

With `O=C(N[C@@H](CNC(=O)C1CC1)C(=O)O)c1c(Cl)cccc1Cl` [Example 210], in test [1], the IC50 was found to be 36 nM.

On to `N[C@@H](CO)C(=O)NC[C@H](NC(=O)c1ccc(C(=O)NCc2cccc(O)c2)cc1Cl)C(=O)O` [Example 292], for which the IC50 was found to be 5.4 nM in test [1] and 3650 nM in test [2] (Mus musculus, T-lymphocyte).

Take `COc1cc(C(=O)NC[C@H](NC(=O)c2ccc(C(=O)NCc3cccc(O)c3)cc2Cl)C(=O)O)nc2ccccc12` [Example 182]: the IC50 in test [1] amounted to 15 nM.

In the case of `O=C(/C=C/c1cccs1)NC[C@H](NC(=O)c1c(Cl)cccc1Cl)C(=O)O` [Example 218], the IC50 in test [1] was 33 nM.

As for `N[C@H](CC(=O)O)C(=O)NC[C@H](NC(=O)c1ccc(C(=O)NCc2cccc(O)c2)cc1Cl)C(=O)O` [Example 275], the IC50 was 2.2 nM in test [1] and 540 nM in test [2] (Mus musculus, T-lymphocyte).

`O=C(N[C@@H](CNC(=O)C1CCCC1)C(=O)O)c1c(Cl)cccc1Cl` [Example 213]: the IC50 in test [1] was found to be 31 nM.

With `CCCCS(=O)(=O)NC[C@H](NC(=O)c1ccc(C(=O)N[C@H](C)c2cccc3ccccc23)cc1Cl)C(=O)O` [Example 361, 3-(1-butanesulfonylamino)-N-[2-chloro-4-[[[(1R)-1-(1-naphthalenyl)ethyl]amino]carbonyl]benzoyl]-L-alanine], the IC50 in test [1] came out at 42 nM; in test [2] (Mus musculus, T-lymphocyte) it was 21500 nM.

With `O=C(NCc1ccc(C(=O)N[C@@H](CNC(=O)c2ccccc2)C(=O)O)c(Cl)c1)c1cnc2ccccc2c1` [Example 370], the IC50 in test [1] was 40 nM; in test [2] (Mus musculus, T-lymphocyte), 11000 nM.

As for `O=C1CC[C@@H](C(=O)NC[C@H](NC(=O)c2c(Cl)cccc2Cl)C(=O)O)O1` [Example 208], in test [1], the IC50 is 23 nM.

In the case of `COc1cccc(C(=O)NC[C@H](NC(=O)c2c(Cl)cccc2Cl)C(=O)O)c1` [Example 221], the IC50 in test [1] was 24 nM.

On to `O=C(N[C@@H](CNC(=O)C1CCCCC1)C(=O)O)c1c(Cl)cccc1Cl` [Example 215], for which, in test [1], the IC50 is 35 nM.

Consider `Nc1cccc(C(=O)NC[C@H](NC(=O)c2ccc(C(=O)NCc3cccc(O)c3)cc2Cl)C(=O)O)c1` [Example 288], for which the IC50 in test [1] is 1.2 nM; in test [2] (Mus musculus, T-lymphocyte), 210 nM.

As for `O=C(Cc1ccccc1)NC[C@H](NC(=O)c1c(Cl)cccc1Cl)C(=O)O` [Example 204], the IC50 in test [1] was 42 nM.

As to `Cc1cccc(C(=O)NC[C@H](NC(=O)c2c(Cl)cccc2Cl)C(=O)O)n1` [Example 227], the IC50 worked out at 21 nM in test [1] and 8550 nM in test [2] (Mus musculus, T-lymphocyte).

`O=C(Cc1ccc([N+](=O)[O-])cc1)NC[C@H](NC(=O)c1c(Cl)cccc1Cl)C(=O)O` [Example 205]: the IC50 in test [1] came out at 31 nM.

As for `N[C@H](Cc1ccc(O)cc1)C(=O)NC[C@H](NC(=O)c1ccc(C(=O)NCc2cccc(O)c2)cc1Cl)C(=O)O` [Example 274], the IC50 in test [1] worked out at 4.4 nM; in test [2] (Mus musculus, T-lymphocyte), 3700 nM.

For `Nc1cccc(C(=O)NCc2ccc(C(=O)N[C@@H](CNC(=O)c3ccccc3)C(=O)O)c(Cl)c2)c1` [Example 367], the IC50 in test [1] was 41 nM; in test [2] (Mus musculus, T-lymphocyte), 17000 nM.
